Values quoted from earlier work as cited in patent US9459262B2, “Systems and methods for determining the percentage of glycated hemoglobin” (Relia Diagnostic Systems, Inc., priority 2009, dated 2016).
Where two headings read alike, the source gives them in different places.

Compound | Ionization constant (pKa) | Ionization constant (pKa) (second value)
Cc1ccccc1B(O)O [2-Methylphenylboronic acid] | 9.7 | 
O=[N+]([O-])c1ccccc1B(O)O [2-Nitrophenylboronic acid] | 9.2 | 
OB(O)c1cc(C(F)(F)F)cc(C(F)(F)F)c1 [3,5-Bis(trifluoromethyl)phenylboronic acid] | 7.2 | 
OB(O)c1cc(Cl)cc(Cl)c1 [3,5-Dichlorophenylboronic acid] | 7.4 | 
Cc1cc(C)cc(B(O)O)c1 [3,5-Dimethylphenylboronic acid] | 9.1 | 
COC(=O)c1cc(B(O)O)cc([N+](=O)[O-])c1 [3-Methoxycarbonyl-5-nitrophenylboronic acid] | 6.9 | 
COc1cccc(B(O)O)c1 [3-Methoxyphenylboronic acid] | 8.7 | 
Cc1cccc(B(O)O)c1 [3-Methylphenylboronic acid] | 9.0 | 
OB(O)c1cccnc1 [3-Pyridylboronic acid] | 4.0 | 8.2
OB(O)c1ccc(Br)cc1 [4-Bromophenylboronic acid] | 8.6 | 
O=C(O)c1ccc(B(O)O)cc1 [4-Carboxyphenylboronic acid] | 8.4 | 
OB(O)c1ccc(F)cc1 [4-Fluorophenylboronic acid] | 9.1 | 
COc1ccc(B(O)O)cc1 [4-Methoxyphenylboronic acid] | 9.3 | 
Cc1ccc(B(O)O)cc1 [4-Methylphenylboronic acid] | 9.3 | 
O=[N+]([O-])c1ccc(B(O)O)cc1 [4-Nitrophenylboronic acid] | 7.1 | 
OB(O)c1cccc2cccnc12 [8-Quinolinylboronic acid] | 4.0 | 10
CB(O)O [Methylboronic acid] | 10.4 | 
